Laboratory results as given in US20090233906A1, “IMIDAZOAZEPINONE COMPOUNDS” (priority 2006, published 2009).
Like-named read-outs stand apart in the source and are kept apart here.

Test system: human T-bet
Assay: HEKT-bet-luc assay (normalized)
Assay type: cell-based
Protocol: HEKT-bet-luc assay: This assay measures a T-bet dependent reporter (luciferase) activity in engineered HEK cells that express a human T-bet and a T-box responsive element driving luciferase reporter. HEKT-bet cells were plated at 2×10^4/well in 96-well plate and compound was added into cell culture for 24 hours. Luciferase activity was measured by adding 50 μl of Steady-Glo reagent (Promega) and samples were read in Victor V reader (PerkinElmer). The activity of compound was determined by comparing compound treated samples to non-compound treated vehicle controls. The IC50 values were calculated utilizing a maximum value corresponding to the amount of luciferase in the absence of a test compound and a minimum value corresponding to a test compound value obtained at maximum inhibition.
Determination of Normalized HEKT-bet IC50 values: Compounds were assayed in microtiter plates. Each plate included a reference compound which was ER-819544. The un-normalized IC50 value for a particular compound was divided by the IC50 value determined for the reference compound in the same microtiter plate to provide a relative potency value. The relative potency value was then multiplied by the established potency of the reference compound to provide the normalized HEKT-bet IC50 value. […] The IC50 values provided herein were obtained using this normalization method.

[1] = Homo sapiens, HEK293, 24 h, normalized HEKT-bet-luc IC50, engineered HEK cells, T-box responsive luciferase reporter, compound 24 hours, normalized to reference ER-819544, read-out: IC50

| SMILES | IC50 [1] | also measured |
| --- | --- | --- |
| CCN1C(=O)N2Cc3cc(OC)cc(OC)c3C(C)C=C2C12CCN(Cc1cc(C)cc(C)c1)CC2 (racemic) [compound 819597] | 90 nM | – |
| COCCN1C(=O)N2Cc3cc(OC)cc(OC)c3C(C)(C)C=C2C12CCN(Cc1cc(OC)cc(OC)c1)CC2 [ER-819544] | – | IC50 (Homo sapiens, HEKT-bet-luc assay, value used for normalization, read-out: established potency of the reference compound (IC50)): 35 nM |
| COCCN1C(=O)N2Cc3cc(OC)cc(OC)c3C(C)C=C2C12CCN(Cc1cc(OC)cc(OC)c1)CC2 (centres unmarked) [compound 819543] | 15 nM | – |
| COCCN1C(=O)N2Cc3cc(OC)cc(OC)c3C(C)(C)C=C2C12CCN(Cc1cc(OC)cc(OC)c1)CC2 [compound 819544] | 35 nM | – |
| CCC1C=C2N(Cc3cc(OC)cc(OC)c31)C(=O)N(CCOC)C21CCN(Cc2cc(OC)cc(OC)c2)CC1 (centres unmarked) [compound 819549] | 15 nM | – |
| CCN1C(=O)N2Cc3cc(OC)cc(OC)c3C(C)C=C2C12CCN(Cc1cccs1)CC2 (centres unmarked) [compound 819556] | 166 nM | – |
| CCc1ccc(CN2CCC3(CC2)C2=CC(C)c4c(cc(OC)cc4OC)CN2C(=O)N3CC)s1 (centres unmarked) [compound 819557] | 510 nM | – |
| CCN1C(=O)N2Cc3cc(OC)cc(OC)c3C(C)C=C2C12CCN(Cc1cscc1Br)CC2 (centres unmarked) [compound 819558] | 740 nM | – |
| CCN1C(=O)N2Cc3cc(OC)cc(OC)c3C(C)C=C2C12CCN(Cc1cc(OC)cc(OC)c1)CC2 (centres unmarked) [compound 819582] | 10 nM | – |
| CCN1C(=O)N2Cc3cc(OC)cc(OC)c3C(C)(C)C=C2C12CCN(Cc1cc(OC)cc(OC)c1)CC2 [compound 819583] | 112 nM | – |
| COc1cc(CN2CCC3(CC2)C2=CC(C)(C)c4c(cc(OC)cc4OC)CN2C(=O)N3Cc2cccc(-n3cccc3)c2)cc(OC)c1 [compound 819590] | 514 nM | – |
| CCN1C(=O)N2Cc3cc(OC)cc(OC)c3C(C)C=C2C12CCN(Cc1cccc3ncccc13)CC2 (centres unmarked) [compound 819592] | 86 nM | – |
| CCN1C(=O)N2Cc3cc(OC)cc(OC)c3C(C)C=C2C12CCN(Cc1cccc3cnccc13)CC2 (centres unmarked) [compound 819593] | 140 nM | – |
| CCN1C(=O)N2Cc3cc(OC)cc(OC)c3C(C)C=C2C12CCN(Cc1cccc3cccnc13)CC2 (centres unmarked) [compound 819594] | 60 nM | – |
| CCN1C(=O)N2Cc3cc(OC)cc(OC)c3C(C)C=C2C12CCN(Cc1cccc3nccnc13)CC2 (centres unmarked) [compound 819595] | 90 nM | – |
| CCN1C(=O)N2Cc3cc(OC)cc(OC)c3C(C)C=C2C12CCN(Cc1cn(C)c3ccccc13)CC2 (centres unmarked) [compound 819596] | 720 nM | – |
| CCN1C(=O)N2Cc3cc(OC)cc(OC)c3C(C)C=C2C12CCN(Cc1cc(Br)cc(Br)c1)CC2 (centres unmarked) [compound 819599] | 4710 nM | – |
| CCN1C(=O)N2Cc3cc(OC)cc(OC)c3C(C)(C)C=C2C12CCN(Cc1ccnc3ccccc13)CC2 [compound 819601] | 260 nM | – |
| CCN1C(=O)N2Cc3cc(OC)cc(OC)c3C(C)(C)C=C2C12CCN(Cc1cccc3ncccc13)CC2 [compound 819602] | 150 nM | – |
| CCN1C(=O)N2Cc3cc(OC)cc(OC)c3C(C)(C)C=C2C12CCN(Cc1cccc3cnccc13)CC2 [compound 819603] | 340 nM | – |
| CCN1C(=O)N2Cc3cc(OC)cc(OC)c3C(C)(C)C=C2C12CCN(Cc1cccc3cccnc13)CC2 [compound 819604] | 120 nM | – |

| SMILES | IC50 [1] | also measured |
| --- | --- | --- |
| CCN1C(=O)N2Cc3cc(OC)cc(OC)c3C(C)(C)C=C2C12CCN(Cc1cccc3nccnc13)CC2 [compound 819605] | 260 nM | – |
| CCN1C(=O)N2Cc3cc(OC)cc(OC)c3C(C)(C)C=C2C12CCN(Cc1cn(C)c3ccccc13)CC2 [compound 819606] | 2870 nM | – |
| CCN1C(=O)N2Cc3cc(OC)cc(OC)c3C(C)(C)C=C2C12CCN(Cc1cc(C)cc(C)c1)CC2 [compound 819607] | 500 nM | – |
| COCCN1C(=O)N2Cc3cc(OC)ccc3C(C)(C)C=C2C12CCN(Cc1ccccc1)CC2 [compound 819613] | 1310 nM | – |
| COc1cc2c(c(OC)c1)C(C)(C)C=C1N(C2)C(=O)N(C)C12CCN(Cc1ccc3ccccc3c1)CC2 [compound 819627] | 1600 nM | – |
| COc1cccc(CN2CCC3(CC2)C2=CC(C)(C)c4c(cc(OC)cc4OC)CN2C(=O)N3C)c1 [compound 819628] | 360 nM | – |
| COc1cc2c(c(OC)c1)C(C)(C)C=C1N(C2)C(=O)N(C)C12CCN(Cc1ccccc1)CC2 [compound 819629] | 840 nM | – |
| COc1cc2c(c(OC)c1)C(C)(C)C=C1N(C2)C(=O)N(C)C12CCN(C/C=C/c1ccccc1)CC2 [compound 819634] | 1150 nM | – |
| COc1cc2c(c(OC)c1)C(C)(C)C=C1N(C2)C(=O)N(C)C12CCN(Cc1cccc3ccccc13)CC2 [compound 819637] | 734 nM | – |
| CCN1C(=O)N2Cc3cc(OC)cc(OC)c3C(C)(C)C=C2C12CCN(Cc1ccccc1)CC2 [compound 819640] | 542 nM | – |
| COCCN1C(=O)N2Cc3cc(OC)cc(OC)c3C(C)(C)C=C2C12CCN(Cc1ccccc1)CC2 [compound 819641] | 98 nM | – |
| COc1cc2c(c(OC)c1)C(C)(C)C=C1N(C2)C(=O)N(CCO)C12CCN(Cc1ccccc1)CC2 [compound 819642] | 365 nM | – |
| CCN1C(=O)N2Cc3cc(OC)cc(OC)c3C(C)(C)C=C2C12CCN(Cc1cccc(OC)c1)CC2 [compound 819646] | 184 nM | – |
| COCCN1C(=O)N2Cc3cc(OC)cc(OC)c3C(C)(C)C=C2C12CCN(Cc1cccc(OC)c1)CC2 [compound 819647] | 64 nM | – |
| COc1cccc(CN2CCC3(CC2)C2=CC(C)(C)c4c(cc(OC)cc4OC)CN2C(=O)N3CCO)c1 [compound 819648] | 147 nM | – |
| COc1cccc(CN2CCC3(CC2)C2=CC(C)(C)c4c(cc(OC)cc4OC)CN2C(=O)N3Cc2ccccc2)c1 [compound 819649] | 4940 nM | – |
| COc1cccc(CN2CCC3(CC2)C2=CC(C)(C)c4c(cc(OC)cc4OC)CN2C(=O)N3Cc2ccc(-n3cccn3)cc2)c1 [compound 819650] | 669 nM | – |
| CC=C1C=C2N(Cc3cc(OC)cc(OC)c31)C(=O)N(CC)C21CCN(Cc2cc(OC)cc(OC)c2)CC1 [compound 819651] | 110 nM | – |
| CCC=C1C=C2N(Cc3cc(OC)cc(OC)c31)C(=O)N(CC)C21CCN(Cc2cc(OC)cc(OC)c2)CC1 [compound 819652] | 270 nM | – |
| COCCN1C(=O)N2Cc3cc(OC)ccc3C(C)(C)C=C2C12CCN(Cc1cc(OC)cc(OC)c1)CC2 [compound 819655] | 204 nM | – |
| COc1cc(CN2CCC3(CC2)C2=CC(C)(C)c4c(cc(OC)cc4OC)CN2C(=O)N3CCO)cc(OC)c1 [compound 819657] | 65 nM | IC50 (normalized HEKT-bet-luc IC50, engineered HEK cells, T-box responsive luciferase reporter, compound 24 hours, normalized to reference ER-819544, read-out: IC50): 124 nM |

| SMILES | IC50 [1] | also measured |
| --- | --- | --- |
| COc1cc(CN2CCC3(CC2)C2=CC(C)(C)c4c(cc(OC)cc4OC)CN2C(=O)N3C)cc(OC)c1 [compound 819658] | 141 nM | – |
| COCCN1C(=O)N2Cc3cc(OC)cc(OC)c3C(C)(C)C=C2C12CCN(Cc1cc(C)cc(C)c1)CC2 [compound 819659] | 68 nM | – |
| COc1cc(CN2CCC3(CC2)C2=CC(C)(C)c4c(cc(OC)cc4OC)CN2C(=O)N3Cc2ccccc2)cc(OC)c1 [compound 819662] | 898 nM | – |
| COc1cc(CN2CCC3(CC2)C2=CC(C)(C)c4c(cc(OC)cc4OC)CN2C(=O)N3Cc2ccc(-n3cccn3)cc2)cc(OC)c1 [compound 819663] | 637 nM | – |
| COCCN1C(=O)N2Cc3cc(F)ccc3C(C)(C)C=C2C12CCN(Cc1cc(OC)cc(OC)c1)CC2 [compound 819672] | 877 nM | – |
| COCCN1C(=O)N2Cc3cc(OC)cc(OC)c3CC=C2C12CCN(Cc1cc(OC)cc(OC)c1)CC2 [compound 819673] | 102 nM | – |
| COCCN1C(=O)N2Cc3ccccc3C(C)(C)C=C2C12CCN(Cc1cc(OC)cc(OC)c1)CC2 [compound 819677] | 1020 nM | – |
| COc1cc2c(c(OC)c1)C(C)C=C1N(C2)C(=O)N(C)C12CCN(Cc1cccc3ncccc13)CC2 (centres unmarked) [compound 819688] | 288 nM | – |
| COc1cc2c(c(OC)c1)C(C)C=C1N(C2)C(=O)N(C)C12CCN(Cc1cccc3cccnc13)CC2 (centres unmarked) [compound 819689] | 169 nM | – |
| COCCN1C(=O)N2Cc3ccoc3C(C)(C)C=C2C12CCN(Cc1cc(OC)cc(OC)c1)CC2 [compound 819698] | 1980 nM | – |
| COCCN1C(=O)N2Cc3cc(OC)c(OC)c(OC)c3C(C)(C)C=C2C12CCN(Cc1cc(OC)cc(OC)c1)CC2 [compound 819701] | 21 nM | – |
| CCN1C(=O)N2Cc3cc(OC)cc(OC)c3/C=C/C=C\2C12CCN(Cc1cc(OC)cc(OC)c1)CC2 [compound 819702] | 600 nM | – |
| C=C1C=C2N(Cc3cc(OC)cc(OC)c31)C(=O)N(CC)C21CCN(Cc2cc(OC)cc(OC)c2)CC1 [compound 819703] | 247 nM | – |
| COCCN1C(=O)N2Cc3cc(F)cc(F)c3C(C)(C)C=C2C12CCN(Cc1cc(OC)cc(OC)c1)CC2 [compound 819704] | 2760 nM | – |
| CCN1C(=O)N2Cc3cc4c(cc3C(C)(C)C=C2C12CCN(Cc1cc(OC)cc(OC)c1)CC2)OCO4 [compound 819708] | 3600 nM | – |
| COc1cc(CN2CCC3(CC2)C2=CC(C)(C)c4c(cc(OC)cc4OC)CN2C(=O)N3CCO)c(F)c(OC)c1 [compound 819724] | 104 nM | – |
| COc1cc2c(c(OC)c1OC)C(C)C=C1N(C2)C(=O)N(CCO)C12CCN(Cc1cc(C)cc(C)c1)CC2 (centres unmarked) [compound 819735] | 140 nM | – |
| COCCN1C(=O)N2Cc3cc(OC)cc(OC)c3C(C)(C)C=C2C12CCN(Cc1cc(OC)cc(OC)c1C)CC2 [compound 819749] | 44 nM | – |
| COCCN1C(=O)N2Cc3cc(OC)cc(OC)c3C(C)(C)C=C2C12CCN(Cc1cc(OC)cc(OC)c1O)CC2 [compound 819750] | 41 nM | – |
